Test results as given in ChEMBL document CHEMBL1201862, “PubChem BioAssay data set” (2004).
Values belong to the molecule of their own block, whether it stands above or below them. The source made the active and inactive calls.

Experiments:
Insulin-degrading enzyme [1] = molecular target: T1, Insulin-degrading enzyme (Homo sapiens, UniProt P14735); experiment: activators of recombinant IDE enzyme, dose response, counter-screen for IDE activator project, biochemical, fluorescence polarization (AID 588681)
T1 sequence (P14735 whole entry): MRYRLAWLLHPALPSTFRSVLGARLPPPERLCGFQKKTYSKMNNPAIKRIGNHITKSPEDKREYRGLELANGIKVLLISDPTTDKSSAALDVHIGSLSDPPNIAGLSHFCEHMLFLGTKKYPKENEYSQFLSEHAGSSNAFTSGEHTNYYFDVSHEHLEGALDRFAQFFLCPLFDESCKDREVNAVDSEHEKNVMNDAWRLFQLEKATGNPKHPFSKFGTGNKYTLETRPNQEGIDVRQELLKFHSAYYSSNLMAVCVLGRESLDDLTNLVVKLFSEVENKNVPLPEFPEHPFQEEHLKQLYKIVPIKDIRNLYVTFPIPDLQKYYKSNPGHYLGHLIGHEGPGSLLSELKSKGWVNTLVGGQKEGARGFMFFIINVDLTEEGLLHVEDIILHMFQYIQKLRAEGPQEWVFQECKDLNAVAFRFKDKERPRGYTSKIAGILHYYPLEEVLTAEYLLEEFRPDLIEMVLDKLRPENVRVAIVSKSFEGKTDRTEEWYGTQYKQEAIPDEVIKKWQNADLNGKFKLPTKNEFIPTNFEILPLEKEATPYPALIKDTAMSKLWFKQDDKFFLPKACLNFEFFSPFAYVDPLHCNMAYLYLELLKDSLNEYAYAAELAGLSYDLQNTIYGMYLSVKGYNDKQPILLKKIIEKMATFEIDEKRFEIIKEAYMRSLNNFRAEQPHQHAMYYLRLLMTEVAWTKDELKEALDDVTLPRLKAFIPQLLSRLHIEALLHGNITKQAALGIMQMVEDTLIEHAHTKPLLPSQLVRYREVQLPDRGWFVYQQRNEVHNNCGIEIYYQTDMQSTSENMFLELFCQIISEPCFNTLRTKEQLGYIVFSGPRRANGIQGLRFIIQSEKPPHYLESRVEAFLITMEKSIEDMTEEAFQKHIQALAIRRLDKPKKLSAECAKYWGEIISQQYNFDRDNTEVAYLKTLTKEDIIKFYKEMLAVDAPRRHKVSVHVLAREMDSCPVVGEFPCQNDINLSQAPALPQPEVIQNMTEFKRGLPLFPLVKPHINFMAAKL

[2] = Luminescence Cell-Based Dose Retest to Confirm Inhibitors of Cancer Stem Cells. [Related pubchem assays (depositor defined):AID2717, AID2721]; format: functional; conditions: Homo sapiens
HEK293 [3] = experiment: HEK cell cytotoxicity by LDH release, dose response, cytotoxicity control for IDE activator project, fluorescence, HEK cells (AID 588440); format: functional, cell-based; conditions: Homo sapiens;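 note: cytotoxicity by LDH release measuring loss of membrane integrity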
Insulin-degrading enzyme [4] = molecular target: T1, Insulin-degrading enzyme; experiment: activators of endogenous IDE in HEK cells, dose response, cell-based, fluorescence polarization (AID 588439); format: functional
HEK293 [5] = experiment: optical interference in Abeta FP readout, dose response, artefact control for IDE activator project, biochemical, fluorescence polarization (AID 588442); format: functional, cell-based; conditions: Homo sapiens
[6] = molecular target: Protein disulfide-isomerase (Homo sapiens, UniProt P07237); experiment: PDI inhibitors, insulin aggregation turbidity, dose response, biochemical, absorbance, cherry-picked samples (AID 602350); format: functional
[7] = molecular target: Dual specificity tyrosine-phosphorylation-regulated kinase 1A (Rattus norvegicus, UniProt Q63470); format: biochemical, Homo sapiens
[8] = molecular target: T2, Ubiquitin-conjugating enzyme E2 N (Homo sapiens, UniProt P61088); format: functional
T2 sequence (P61088 whole entry): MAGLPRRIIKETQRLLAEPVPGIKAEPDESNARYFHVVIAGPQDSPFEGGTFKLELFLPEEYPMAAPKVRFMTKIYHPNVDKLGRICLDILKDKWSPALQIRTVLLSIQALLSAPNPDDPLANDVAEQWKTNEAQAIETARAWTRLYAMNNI

Melanocortin receptor 4 = Melanocortin receptor 4 (Homo sapiens, UniProt P32245); experiment: MC4R antagonist potency on cAMP, dose response, cell-based, TR-FRET, biased antagonists (AID 602298); format: functional;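 note: antagonist potency against agonist-stimulated cAMP production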
[9] = molecular target: ATP-dependent molecular chaperone HSP82 (Candida albicans (strain WO-1) (Yeast), UniProt C4YTQ8); experiment: loss of DOC-induced GRE-beta-galactosidase reporter signal, dose response, Hsp90 inhibitor project, S. cerevisiae, luminescence (AID 2400); format: functional, cell-based;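 note: beta-galactosidase luminescence from glucocorticoid response element reporter as proxy for Hsp90 function; inhibitor potency where signal loss means Hsp90 inhibition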
[10] = molecular target: T2, Ubiquitin-conjugating enzyme E2 N; format: functional; remark: listed apart in the source
[11] = molecular target: T3, Hepatocyte nuclear factor 4-alpha (Homo sapiens, UniProt P41235); format: functional, cell-based;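 note: biochemical luminescence-based dose-response counterscreen measuring inhibition of HNF4 dimerization, run alongside a screen for blockers of ABHD5–perilipin-5 interaction; split luciferase complementation of HNF4 fusion proteins in cell lysate measuring dimerization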
T3 sequence (P41235 whole entry): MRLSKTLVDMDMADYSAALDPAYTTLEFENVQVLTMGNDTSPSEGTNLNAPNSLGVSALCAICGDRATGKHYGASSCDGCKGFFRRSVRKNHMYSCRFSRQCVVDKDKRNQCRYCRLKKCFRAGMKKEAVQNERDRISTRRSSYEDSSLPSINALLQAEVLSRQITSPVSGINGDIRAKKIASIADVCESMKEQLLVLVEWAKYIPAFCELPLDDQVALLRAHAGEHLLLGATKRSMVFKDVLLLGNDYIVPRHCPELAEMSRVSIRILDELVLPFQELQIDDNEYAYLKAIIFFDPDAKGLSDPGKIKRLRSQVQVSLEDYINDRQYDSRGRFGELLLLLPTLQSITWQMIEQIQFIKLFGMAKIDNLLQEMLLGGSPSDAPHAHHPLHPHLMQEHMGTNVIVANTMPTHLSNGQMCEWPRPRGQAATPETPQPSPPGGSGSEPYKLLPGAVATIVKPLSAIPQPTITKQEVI

Bcl-2-related protein A1 = molecular target: T4, Bcl-2-related protein A1 (Mus musculus, UniProt Q07440); format: functional;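 note: confirmatory dose–response counterscreen on Bfl-1, used to check hits from a UBC13 polyubiquitin inhibitor campaign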
T4 sequence (Q07440 whole entry): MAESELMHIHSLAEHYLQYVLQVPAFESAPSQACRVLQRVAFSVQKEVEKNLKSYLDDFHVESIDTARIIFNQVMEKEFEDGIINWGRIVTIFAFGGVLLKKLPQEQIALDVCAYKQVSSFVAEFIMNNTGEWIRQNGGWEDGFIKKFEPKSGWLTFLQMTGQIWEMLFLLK

Paired box protein Pax-8 = Paired box protein Pax-8 (Homo sapiens, UniProt Q06710); experiment: inhibitors of PAX8-driven TPO luciferase reporter, dose response, RMG-I cells, cherry-pick (AID 687027); format: functional, cell-based;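 note: luciferase reporter driven by Pax8 target thyroperoxidase promoter measured by SteadyGlo luminescence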
Cytochrome P450 2C9 = Cytochrome P450 2C9 (Homo sapiens, UniProt P11712)
Hexokinase HKDC1 = molecular target: T5, Hexokinase HKDC1 (Homo sapiens, UniProt Q2TB90); experiment: HKDC1 hexokinase inhibitors, dose response, biochemical, W721R variant (AID 504729); format: functional
T5 sequence (Q2TB90 whole entry): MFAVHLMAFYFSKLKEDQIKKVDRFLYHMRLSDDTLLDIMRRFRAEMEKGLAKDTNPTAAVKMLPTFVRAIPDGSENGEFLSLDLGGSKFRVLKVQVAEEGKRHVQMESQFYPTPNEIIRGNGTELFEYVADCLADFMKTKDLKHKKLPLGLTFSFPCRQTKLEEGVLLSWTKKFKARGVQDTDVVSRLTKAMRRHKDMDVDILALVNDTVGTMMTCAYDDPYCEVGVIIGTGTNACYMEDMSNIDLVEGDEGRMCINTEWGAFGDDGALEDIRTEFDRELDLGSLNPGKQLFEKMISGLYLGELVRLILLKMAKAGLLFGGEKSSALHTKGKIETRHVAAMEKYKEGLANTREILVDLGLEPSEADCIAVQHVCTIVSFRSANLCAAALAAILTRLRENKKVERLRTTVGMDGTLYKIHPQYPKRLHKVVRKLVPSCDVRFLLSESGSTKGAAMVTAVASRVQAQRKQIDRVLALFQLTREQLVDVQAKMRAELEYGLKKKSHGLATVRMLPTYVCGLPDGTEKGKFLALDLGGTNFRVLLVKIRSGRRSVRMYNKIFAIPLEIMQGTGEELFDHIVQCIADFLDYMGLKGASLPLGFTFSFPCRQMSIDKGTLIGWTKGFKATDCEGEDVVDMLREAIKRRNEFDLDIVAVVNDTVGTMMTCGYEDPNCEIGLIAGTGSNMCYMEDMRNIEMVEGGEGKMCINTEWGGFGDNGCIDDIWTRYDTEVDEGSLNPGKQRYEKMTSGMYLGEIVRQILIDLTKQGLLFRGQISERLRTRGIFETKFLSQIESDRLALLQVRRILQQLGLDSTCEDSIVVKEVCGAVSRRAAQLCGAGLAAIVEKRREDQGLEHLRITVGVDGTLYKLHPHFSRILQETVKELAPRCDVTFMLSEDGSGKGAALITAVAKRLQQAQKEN

Cytochrome P450 1A2 = molecular target: T6, Cytochrome P450 1A2 (Homo sapiens, UniProt P05177);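 note: PubChem cytochrome P450 panel assay, CYP1A2 panel member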
T6 sequence (P05177 whole entry): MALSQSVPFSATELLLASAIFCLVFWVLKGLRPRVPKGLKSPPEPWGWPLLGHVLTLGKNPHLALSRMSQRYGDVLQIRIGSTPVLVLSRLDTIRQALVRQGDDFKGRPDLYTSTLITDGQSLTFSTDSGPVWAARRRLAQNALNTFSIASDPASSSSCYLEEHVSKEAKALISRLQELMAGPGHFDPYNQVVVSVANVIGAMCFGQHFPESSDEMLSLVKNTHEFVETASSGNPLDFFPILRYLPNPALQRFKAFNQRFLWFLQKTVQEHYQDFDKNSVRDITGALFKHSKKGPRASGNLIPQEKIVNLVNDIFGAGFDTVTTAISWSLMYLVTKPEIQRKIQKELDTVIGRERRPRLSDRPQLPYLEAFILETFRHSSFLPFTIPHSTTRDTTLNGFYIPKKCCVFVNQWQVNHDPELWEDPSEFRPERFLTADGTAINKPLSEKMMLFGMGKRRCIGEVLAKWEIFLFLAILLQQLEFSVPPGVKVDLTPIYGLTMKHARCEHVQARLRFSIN

[12] = molecular target: T7, DNA repair protein RAD52 homolog (Homo sapiens, UniProt P43351); format: functional, biochemical
T7 sequence (P43351 whole entry): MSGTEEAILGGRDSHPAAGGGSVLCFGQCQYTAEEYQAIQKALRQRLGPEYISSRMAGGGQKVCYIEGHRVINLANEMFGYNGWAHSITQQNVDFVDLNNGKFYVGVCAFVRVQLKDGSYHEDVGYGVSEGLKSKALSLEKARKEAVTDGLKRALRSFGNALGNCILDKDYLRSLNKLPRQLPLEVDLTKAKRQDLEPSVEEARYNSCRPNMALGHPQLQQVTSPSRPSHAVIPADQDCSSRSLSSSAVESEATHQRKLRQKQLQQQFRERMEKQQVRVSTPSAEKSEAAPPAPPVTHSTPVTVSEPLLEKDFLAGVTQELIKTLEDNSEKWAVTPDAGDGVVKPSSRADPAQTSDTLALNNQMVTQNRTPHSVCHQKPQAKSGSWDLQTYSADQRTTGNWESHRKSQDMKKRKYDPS

CAAX prenyl protease 2 = molecular target: T8, CAAX prenyl protease 2 (Saccharomyces cerevisiae S288c, UniProt Q03530); format: biochemical
T8 sequence (Q03530 whole entry): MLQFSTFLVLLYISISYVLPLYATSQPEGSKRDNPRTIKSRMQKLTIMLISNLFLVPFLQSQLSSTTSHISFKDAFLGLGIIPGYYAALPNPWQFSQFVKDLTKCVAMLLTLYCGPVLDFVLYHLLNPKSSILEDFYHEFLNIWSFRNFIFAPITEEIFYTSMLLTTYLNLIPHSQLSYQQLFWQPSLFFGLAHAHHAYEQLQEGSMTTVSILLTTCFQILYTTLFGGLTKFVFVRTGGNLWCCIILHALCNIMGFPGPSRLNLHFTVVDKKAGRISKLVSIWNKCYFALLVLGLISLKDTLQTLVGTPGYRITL

[13] = HeLa 2N DNA content increase, dose response, cell-based, IC50 (AID 1117349); format: functional
[14] = HeLa 4N DNA content increase, dose response, cell-based, IC50 (AID 1117351); format: functional
[15] = molecular target: Serine/threonine-protein kinase TAO1 (Homo sapiens, UniProt Q7L7X3); format: functional
[16] = molecular target: Serine/threonine-protein kinase D2 (Homo sapiens, UniProt Q9BZL6); format: functional;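 note: measured against PRKD2 as one member of a kinome-wide kinase profiling panel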
Sequence of Serine/threonine-protein kinase D2 (Q9BZL6 whole entry): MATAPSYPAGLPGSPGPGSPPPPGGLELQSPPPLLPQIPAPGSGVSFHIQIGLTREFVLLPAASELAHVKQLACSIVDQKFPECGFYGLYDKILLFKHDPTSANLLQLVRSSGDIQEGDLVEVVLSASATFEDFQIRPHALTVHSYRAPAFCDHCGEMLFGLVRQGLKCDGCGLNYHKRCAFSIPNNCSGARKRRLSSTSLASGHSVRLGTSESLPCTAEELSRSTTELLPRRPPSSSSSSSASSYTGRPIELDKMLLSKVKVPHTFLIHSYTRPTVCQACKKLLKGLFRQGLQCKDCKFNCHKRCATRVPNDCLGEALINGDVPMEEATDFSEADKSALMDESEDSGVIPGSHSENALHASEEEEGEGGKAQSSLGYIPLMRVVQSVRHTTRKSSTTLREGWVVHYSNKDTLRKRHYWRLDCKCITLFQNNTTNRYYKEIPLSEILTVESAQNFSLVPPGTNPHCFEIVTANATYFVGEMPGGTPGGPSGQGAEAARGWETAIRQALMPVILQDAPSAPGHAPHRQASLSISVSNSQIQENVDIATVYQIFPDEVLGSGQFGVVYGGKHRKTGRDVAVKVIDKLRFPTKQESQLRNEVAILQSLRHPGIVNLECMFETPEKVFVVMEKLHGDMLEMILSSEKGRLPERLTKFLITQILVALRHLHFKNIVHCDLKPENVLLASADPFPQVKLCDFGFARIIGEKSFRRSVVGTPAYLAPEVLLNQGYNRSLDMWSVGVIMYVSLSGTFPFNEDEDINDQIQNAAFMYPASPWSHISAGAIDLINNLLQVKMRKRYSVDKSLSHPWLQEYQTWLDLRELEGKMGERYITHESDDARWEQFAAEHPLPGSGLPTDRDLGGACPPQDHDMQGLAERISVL

Sequence of Cytochrome P450 2C9 (P11712 whole entry): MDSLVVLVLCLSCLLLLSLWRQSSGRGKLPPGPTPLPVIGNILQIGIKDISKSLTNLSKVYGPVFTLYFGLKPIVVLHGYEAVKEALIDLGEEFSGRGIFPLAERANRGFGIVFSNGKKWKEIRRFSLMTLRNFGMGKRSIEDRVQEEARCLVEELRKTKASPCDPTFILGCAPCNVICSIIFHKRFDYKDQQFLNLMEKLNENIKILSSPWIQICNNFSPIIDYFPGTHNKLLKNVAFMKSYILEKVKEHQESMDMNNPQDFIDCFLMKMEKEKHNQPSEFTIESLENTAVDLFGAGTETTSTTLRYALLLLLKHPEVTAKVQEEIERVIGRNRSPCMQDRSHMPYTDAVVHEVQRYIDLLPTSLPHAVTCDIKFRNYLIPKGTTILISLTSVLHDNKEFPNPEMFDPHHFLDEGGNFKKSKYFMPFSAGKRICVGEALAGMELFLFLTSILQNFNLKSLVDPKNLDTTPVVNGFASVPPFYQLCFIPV
Sequence of Paired box protein Pax-8 (Q06710 whole entry): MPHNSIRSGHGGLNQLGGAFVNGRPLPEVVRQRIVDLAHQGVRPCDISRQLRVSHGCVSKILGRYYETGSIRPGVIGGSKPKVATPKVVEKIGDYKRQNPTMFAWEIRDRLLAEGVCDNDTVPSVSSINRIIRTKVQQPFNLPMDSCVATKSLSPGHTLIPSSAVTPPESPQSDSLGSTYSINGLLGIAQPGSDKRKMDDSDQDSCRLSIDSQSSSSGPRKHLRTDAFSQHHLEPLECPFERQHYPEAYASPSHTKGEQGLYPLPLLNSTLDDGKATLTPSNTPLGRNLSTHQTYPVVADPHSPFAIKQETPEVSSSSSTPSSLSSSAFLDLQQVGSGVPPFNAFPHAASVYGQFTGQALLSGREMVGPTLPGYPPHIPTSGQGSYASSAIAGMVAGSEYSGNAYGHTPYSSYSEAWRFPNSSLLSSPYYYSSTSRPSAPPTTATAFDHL
Sequence of Protein disulfide-isomerase (P07237 whole entry): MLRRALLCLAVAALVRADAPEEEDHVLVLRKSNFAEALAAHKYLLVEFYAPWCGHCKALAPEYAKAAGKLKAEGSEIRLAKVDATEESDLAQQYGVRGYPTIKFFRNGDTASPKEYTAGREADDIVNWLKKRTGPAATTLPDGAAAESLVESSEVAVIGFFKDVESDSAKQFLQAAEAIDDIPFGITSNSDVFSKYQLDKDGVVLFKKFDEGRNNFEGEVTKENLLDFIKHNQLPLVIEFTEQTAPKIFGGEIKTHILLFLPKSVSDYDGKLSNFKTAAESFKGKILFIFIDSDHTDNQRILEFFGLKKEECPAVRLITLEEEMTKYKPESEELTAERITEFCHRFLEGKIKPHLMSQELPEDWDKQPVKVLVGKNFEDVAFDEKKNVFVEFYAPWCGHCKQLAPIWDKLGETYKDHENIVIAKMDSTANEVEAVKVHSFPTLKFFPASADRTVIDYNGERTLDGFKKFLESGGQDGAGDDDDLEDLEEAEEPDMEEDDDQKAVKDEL
Sequence of ATP-dependent molecular chaperone HSP82 (C4YTQ8 whole entry): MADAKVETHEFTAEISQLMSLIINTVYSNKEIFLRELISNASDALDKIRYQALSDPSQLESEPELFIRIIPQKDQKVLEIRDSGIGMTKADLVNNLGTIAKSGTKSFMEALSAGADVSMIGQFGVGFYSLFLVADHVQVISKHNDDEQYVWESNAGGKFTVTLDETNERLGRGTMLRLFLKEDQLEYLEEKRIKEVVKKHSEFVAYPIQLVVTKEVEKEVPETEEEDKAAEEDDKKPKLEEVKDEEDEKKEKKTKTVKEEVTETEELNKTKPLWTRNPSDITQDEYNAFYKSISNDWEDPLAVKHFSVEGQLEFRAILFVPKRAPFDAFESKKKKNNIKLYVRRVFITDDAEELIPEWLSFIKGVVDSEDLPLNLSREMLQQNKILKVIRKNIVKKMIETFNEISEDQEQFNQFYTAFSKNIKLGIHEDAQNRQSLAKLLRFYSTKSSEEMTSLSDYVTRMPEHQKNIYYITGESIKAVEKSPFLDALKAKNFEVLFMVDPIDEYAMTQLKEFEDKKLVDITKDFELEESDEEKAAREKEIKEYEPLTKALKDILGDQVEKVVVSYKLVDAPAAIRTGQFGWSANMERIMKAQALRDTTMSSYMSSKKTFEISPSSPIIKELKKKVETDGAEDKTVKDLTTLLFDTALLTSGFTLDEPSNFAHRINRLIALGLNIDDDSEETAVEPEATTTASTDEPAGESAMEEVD
Sequence of Serine/threonine-protein kinase TAO1 (Q7L7X3 whole entry): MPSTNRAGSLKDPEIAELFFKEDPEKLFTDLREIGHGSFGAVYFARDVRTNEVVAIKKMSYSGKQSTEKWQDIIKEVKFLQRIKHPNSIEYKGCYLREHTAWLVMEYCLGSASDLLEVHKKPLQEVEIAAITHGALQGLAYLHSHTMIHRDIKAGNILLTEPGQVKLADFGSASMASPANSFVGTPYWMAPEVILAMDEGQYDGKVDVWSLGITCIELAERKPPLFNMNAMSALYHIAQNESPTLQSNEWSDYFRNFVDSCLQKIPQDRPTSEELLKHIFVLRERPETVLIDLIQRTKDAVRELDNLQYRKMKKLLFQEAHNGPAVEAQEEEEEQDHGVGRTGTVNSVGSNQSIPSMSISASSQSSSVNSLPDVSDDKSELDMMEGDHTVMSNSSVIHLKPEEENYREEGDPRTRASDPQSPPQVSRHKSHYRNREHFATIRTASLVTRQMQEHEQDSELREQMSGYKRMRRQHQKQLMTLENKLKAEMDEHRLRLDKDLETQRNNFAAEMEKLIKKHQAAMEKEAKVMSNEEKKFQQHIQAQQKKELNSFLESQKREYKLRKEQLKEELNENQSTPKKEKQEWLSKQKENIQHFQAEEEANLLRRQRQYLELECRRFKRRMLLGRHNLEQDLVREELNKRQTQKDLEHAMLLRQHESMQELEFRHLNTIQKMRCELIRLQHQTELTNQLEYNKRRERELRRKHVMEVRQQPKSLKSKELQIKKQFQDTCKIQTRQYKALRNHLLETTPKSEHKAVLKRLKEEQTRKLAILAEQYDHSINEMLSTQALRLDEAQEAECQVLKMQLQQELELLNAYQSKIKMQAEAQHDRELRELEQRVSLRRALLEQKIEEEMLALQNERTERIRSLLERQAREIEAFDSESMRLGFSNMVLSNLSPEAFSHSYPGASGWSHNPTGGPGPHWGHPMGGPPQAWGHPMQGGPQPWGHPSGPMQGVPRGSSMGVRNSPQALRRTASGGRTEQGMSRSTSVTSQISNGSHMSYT
Sequence of Melanocortin receptor 4 (P32245 whole entry): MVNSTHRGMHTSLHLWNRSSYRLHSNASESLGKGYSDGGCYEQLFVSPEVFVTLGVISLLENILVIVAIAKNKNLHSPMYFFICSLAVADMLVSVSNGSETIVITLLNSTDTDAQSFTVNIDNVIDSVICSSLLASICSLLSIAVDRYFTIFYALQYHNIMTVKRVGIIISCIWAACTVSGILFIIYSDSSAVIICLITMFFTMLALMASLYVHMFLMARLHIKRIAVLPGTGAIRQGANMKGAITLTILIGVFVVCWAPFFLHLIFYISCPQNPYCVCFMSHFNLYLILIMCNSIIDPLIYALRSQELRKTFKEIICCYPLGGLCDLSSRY

SMILES: Cc1cccc(N2CCN(C(S)=Nc3ccc4nc(N5CCN(C)CC5)cc(C)c4c3)CC2C)c1 (stereo not drawn)
- EC50 (Insulin-degrading enzyme [1]): > 54.7 µM (inactive)
- AC50 [2]: 7.58 µM (active)
- IC50 (HEK293 [3]): 8.41 µM (active)
- EC50 (Insulin-degrading enzyme [4]): > 54.7 µM (inactive)
- EC50 (HEK293 [5]): > 54.7 µM (inactive)

- AC50 [6]: 3.51 µM (active)
- AC50 [7]: 6.66 µM (active)
SMILES: C[C@@H]1O[C@@H](OC[C@@H]2O[C@H](Oc3c(-c4ccc(O)cc4)oc4cc(O)cc(O)c4c3=O)[C@@H](O)[C@H](O)[C@H]2O)[C@H](O)[C@H](O)[C@H]1O

- IC50 [8]: 3.01 µM (active)
- IC50 (Melanocortin receptor 4): 2 µM (active)
- EC50 [9]: > 150 µM (inactive)
- IC50 [10]: 2.2 µM (active)
- IC50 [11]: 23.5 µM (inactive)
- IC50 (Bcl-2-related protein A1): > 20 µM (inactive)
- AC50 (Paired box protein Pax-8): 5.69 µM (active)
- AC50 (Cytochrome P450 2C9): 15.8 µM (inconclusive)
- IC50 (Hexokinase HKDC1): 8.99 µM (active)
- AC50 (Cytochrome P450 1A2): 15.8 µM (inconclusive)
- AC50 [12]: 1.7 µM (active)
- AC50 (CAAX prenyl protease 2): 5.69 µM (active)
SMILES: [H]/N=C(\N/C(=N/[H])NCCCCCCNC(=N)NC(=N)Nc1ccc(Cl)cc1)Nc1ccc(Cl)cc1 [CHLORHEXIDINE]

SMILES: Clc1ccc(Nc2nnc(Cc3ccncc3)c3ccccc23)cc1 [VATALANIB]
- IC50 [13]: > 10 µM (inactive)
- IC50 [14]: > 10 µM (inactive)
- Ki [15]: > 7.94 µM (inactive)
- Ki [16]: > 10 µM (inactive)
